Laboratory results reported in patent US20260314597A1, “A NOVEL APPROACH TO INTERFERE IN THE PHENYLPROPANOID BIOSYNTHETIC PATHWAY TO REDUCE PINK-RIB DISORDER IN FRESH LETTUCE” (University of Florida Research Foundation, Inc., priority 2022, published 2026).
“Also recorded” adds a separate entry of the source.

Legend:
[1] = system: phenylalanine ammonia-lyase (PAL); experiment: PAL activity in crude protein extracts of treated wounded midribs; assay type: biochemical, lettuce (iceberg, Romaine); conditions: 5 d at 5° C.; for PAL activity: L-cysteine 4.1 mM or melatonin 4.3 mM; for effect on PAL activity: iceberg and Romaine, vs wounded control
Excerpt: (§1) In all tests, experimental setup began immediately upon arrival to the laboratory. 90 outer leaves were randomly selected from 18 to 22 lettuce heads that met commercial and damage-free quality standards. A midrib segment (12.5 cm) was excised from the center of each leaf and excess leaf blade tissue was trimmed parallel to the midrib. This procedure was adapted from the wounding procedure of Cantwell (2016). Each midrib was then partially sliced transversally at 1.3-cm increments along the midrib. Midribs (n=15) were immediately immersed for 30 s in one of five treatment solutions: deionized water (wounded control), L-cysteine (4.1 mM), naringenin (1.8 mM) with 20% dimethyl sulfoxide (DMSO), serotonin (2.8 or 5.7 mM) or melatonin (4.3 mM) with 0.50% DMSO. Immediately following immersion, the midribs for each treatment were patted dry using paper towels and placed (n=5) in a breathable, high-density polyethylene bag (n=3) (Narrow Profile Produce Bags [14×18 inches] Model No. S-19156, Uline®, Pleasant Prairie, WI). Unwounded control midribs were stored in the same manner. To allow for direct comparison, each cut site on each midrib was assigned an initial discoloration value on day 1 based on the coloration of the rib. Samples were stored at 5° C. with 95-98% relative humidity (RH) for 5 d, simulating commercial storage.
PAL activity was measured using a crude protein extraction following a method reported by Kim et al. (2020) with some modifications. Fresh lettuce samples (300 mg) were ground with liquid nitrogen in a pre-chilled mortar and pestle. A 0.1 mM Tris-HCl buffer (pH 8.3) was added at a 1:1 (w:v). The solution was incubated at 4° C. for 1 h and then centrifuged at 4° C., 9660×g for 15 min. Supernatants were collected in chilled tubes. Total protein content was measured using Quick Start Bradford protein assay kit (Bio-Rad, Hercules, CA, USA) and Bovine Serum Albumin (BSA) as a standard (10 mg mL^−1 in deionized water). Protein concentration was calculated based on the absorbance at 595 nm measured with a NanoDrop (One Microvolume UV-Vis Spectrophotometer, Thermo Scientific, Wilmington, DE, USA) and the standard curve. For the PAL activity test, 150 μL aliquots of the protein extract were incubated in a reaction buffer containing 0.1 mM Tris-HCl buffer (pH 8.3), 5 mM dithiothreitol (DTT), and 5 mM phenylalanine. Reaction mixtures were incubated at 37° C. for 90 min and stopped with the addition of 40 μL of 30% acetic acid. Reaction products were extracted with 600 μL of ethyl acetate and then centrifuged at 22° C., 9660×g for 5 min. The supernatant was dried in a speed vac and re-dissolved in 100 μL of 50% methanol. The final extract (10 μL) was analyzed by HPLC using the method previously described in Section 2.4.
The imaging data (a* value), enzyme activity (PAL and PPO), and metabolite (chlorogenic acid) results were expressed as mean±standard error and analyzed by lettuce type (iceberg or Romaine). For imaging data, an unpaired t-test was used to identify differences within a treatment throughout storage and among treatment groups at each time point. Treatment groups were defined as wounded, unwounded, L-cysteine, and melatonin. […] Analyses of variance were performed for PAL, PPO, and metabolite analyses using SAS software (version 9.4; SAS Institute, Cary, NC) to identify differences among treatment groups. Differences among treatments groups were separated by Tukey's Honest Significant Difference (HSD) test with a confidence level of 95%. The correlation between visual rating and a* value was evaluated for significance via an F-test, from which the P-value of the correlation was calculated.

[2] = system: chlorogenic acid formation in lettuce midribs; experiment: Chlorogenic acid concentration in treated wounded midribs (HPLC); assay type: in vivo, lettuce (iceberg, Romaine); conditions: 5 d at 5° C.; for chlorogenic acid concentration: L-cysteine 4.1 mM or melatonin 4.3 mM; for effect on chlorogenic acid concentration: iceberg and Romaine, vs wounded
Excerpt: as §1
Unwounded, wounded, and compound-treated wounded midrib samples were collected for untargeted metabolite analysis to identify global metabolite changes in response to melatonin application and targeted metabolite analysis to quantify chlorogenic acid a major caffeoyl compound in lettuce. For both targeted and untargeted metabolite analyses, fresh samples (500-800 mg) of the midribs from each treatment (n=3) were weighed, then immediately frozen in liquid nitrogen and stored at −80° C. for subsequent metabolite extraction. Frozen samples were extracted with a 50% methanol extraction solution containing a 1:1 (v:v) of methanol with deionized water. Samples were completely submerged in a 1:1.5 (w:v) of the sample weight (mg) to extraction solution volume (μL), respectively, and incubated at 65° C. for 90 min and then centrifuged at 9660×g for 10 min (MC-12 High Speed Micro Centrifuge, Benchmark Scientific, Edison, NJ). The supernatant was transferred to a new tube and filtered with a 0.45 μm filter (Choice, Thermo Scientific, Wilmington, DE). An aliquot of 400 μL was vacuum-dried.
For chlorogenic acid quantification, vacuum-dried samples were resuspended with 50 μL of 50% methanol. A 10 μL volume of extract was analyzed on an UltiMate 3000 High Performance Liquid Chromatography (HPLC) system (Thermo Fisher Scientific, Ward Hill, MA, USA) equipped with a diode array detector (DAD) in the UV-VIS region 200 to 500 nm. The compounds were separated on an Acclaim™ RSLC PA2 column (150 mm×2.1 mm; 2.2 μm) (Thermo Fisher Scientific, Ward Hill, MA, USA) coupled with a C18 guard column (10 mm×3 mm; 5 μm). The mobile phase consisted of solvent A (0.1% formic acid (v/v) in water) and solvent B (100% acetonitrile), and the gradient as follows: 5% to 20% increase of solvent B at 0.3 to 0.4 min, 20% to 25% increase solvent B at 5.25 to 12.5 min, 25% to 95% increase solvent B at 12.5 to 16.5 min, and 95% solvent B at 16.5 to 20 min. The flow rate was 0.4 mL min^−1 and the column temperature was 40° C. The level of chlorogenic acid was quantified based on the peak area at 328 nm and the standard curve using authentic standard (Sigma Aldrich; St. Louis, MO, USA).
The imaging data (a* value), enzyme activity (PAL and PPO), and metabolite (chlorogenic acid) results were expressed as mean±standard error and analyzed by lettuce type (iceberg or Romaine). For imaging data, an unpaired t-test was used to identify differences within a treatment throughout storage and among treatment groups at each time point. Treatment groups were defined as wounded, unwounded, L-cysteine, and melatonin. […]

Row | PAL activity ([1]; Romaine, wounded control 9.56) [pkat mg^−1] | PAL activity ([1]; iceberg, wounded control 6.73) [pkat mg^−1] | SMILES | effect on PAL activity [1] | chlorogenic acid concentration ([2]; Romaine) [µg/g] | effect on chlorogenic acid concentration [2] | chlorogenic acid concentration ([2]; iceberg) [µg/g]
1 | 11.07 | 5.43 | N[C@@H](CS)C(=O)O [L-cysteine] | no significant reduction in PAL activity | 3.11 | neither L-cysteine nor melatonin significantly reduced chlorogenic acid concentration | 1.55
2 | 6.06 | 7.44 | COc1ccc2[nH]cc(CCNC(C)=O)c2c1 [melatonin] | no significant reduction in PAL activity; also recorded: neither enzyme activity (PAL or PPO) nor chlorogenic acid concentration were impacted; also recorded: did not significantly affect PAL or PPO enzyme activities | 3.11 | neither L-cysteine nor melatonin significantly reduced chlorogenic acid concentration; also recorded: neither enzyme activity (PAL or PPO) nor chlorogenic acid concentration were impacted; also recorded: did not significantly affect PAL or PPO enzyme activities nor formation of chlorogenic acid | 1.55
